What was measured:
SG3199 = compound: CC1=CN2[C@@H](C1)C=NC3=CC(=C(C=C3C2=O)OC)OCCCCCOC4=C(C=C5C(=C4)N=C[C@@H]6CC(=CN6C5=O)C)OC [SG3199]; settings: max 0.001 µM
In short: (§1)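 Cancer cell lines were plated in 1536-well plates in 7.5 μl of DMEM/F12 or RPMI with 10% FBS and kept 24 hours at 37°C and 5% CO2 before 72 hours of dosing, with final DMSO typically 0.2%. CellTiter-Glo 2.0 luminescence measured viability, scaled between blank-well and DMSO-well means. Dose responses were fitted to a two-parameter logistic curve with a non-linear mixed effects model. This fit gives the single-agent IC50.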

MK-2206 = compound: NC1(c2ccc(-c3nc4ccn5c(=O)[nH]nc5c4cc3-c3ccccc3)cc2)CCC1 [MK-2206]; settings: max 10 µM
In short: as §1

AZD5991 = compound: Cc1c2c(nn1C)CSCc1cc(n(C)n1)CSc1cc(c3ccccc3c1)OCCCc1c(C(=O)O)n(C)c3c-2c(Cl)ccc13 [AZD5991]; settings: max 1 µM
In short: as §1

AZD7648 = compound: Cc1cc2ncnn2cc1Nc1ncc2c(n1)n(C1CCOCC1)c(=O)n2C [AZD7648]; settings: max 10 µM
In short: as §1

Dasatinib = compound: CC1=C(C(=CC=C1)Cl)NC(=O)C2=CN=C(S2)NC3=CC(=NC(=N3)C)N4CCN(CC4)CCO [Dasatinib]; settings: max 2 µM
In short: as §1

5-Fluorouracil = compound: O=c1[nH]cc(F)c(=O)[nH]1 [5-Fluorouracil]; settings: max 20 µM
In short: as §1

AZD1390 = compound: CC(C)n1c(=O)n(C)c2cnc3cc(F)c(-c4ccc(OCCCN5CCCCC5)nc4)cc3c21 [AZD1390]; settings: max 0.3 µM
In short: as §1

Etoposide = compound: COc1cc([C@@H]2c3cc4c(cc3[C@@H](O[C@@H]3O[C@@H]5CO[C@@H](C)O[C@H]5[C@H](O)[C@H]3O)[C@H]3COC(=O)[C@H]23)OCO4)cc(OC)c1O [Etoposide]; settings: max 10 µM
In short: as §1

AZD5153 = compound: COc1nnc2ccc(N3CCC(c4ccc(OCCN5CCN(C)C(=O)[C@H]5C)cc4)CC3)nn12 [AZD5153]; settings: max 1 µM
In short: as §1

Venetoclax = compound: CC1(C)CCC(CN2CCN(c3ccc(C(=O)NS(=O)(=O)c4ccc(NCC5CCOCC5)c([N+](=O)[O-])c4)c(Oc4cnc5[nH]ccc5c4)c3)CC2)=C(c2ccc(Cl)cc2)C1 [Venetoclax]; settings: max 1 µM
In short: as §1

Paclitaxel = compound: CC(=O)O[C@H]1C(=O)[C@@]2(C)[C@H]([C@H](OC(=O)c3ccccc3)[C@]3(O)C[C@H](OC(=O)[C@H](O)[C@@H](NC(=O)c4ccccc4)c4ccccc4)C(C)=C1C3(C)C)[C@]1(OC(C)=O)CO[C@@H]1C[C@@H]2O [Paclitaxel]; settings: max 3 µM
In short: as §1

Doxorubicin = compound: COc1cccc2c1C(=O)c1c(O)c3c(c(O)c1C2=O)C[C@@](O)(C(=O)CO)C[C@@H]3O[C@H]1C[C@H](N)[C@H](O)[C@H](C)O1 [Doxorubicin]; settings: max 1 µM
In short: as §1

AZD2811 = compound: CCN(CCO)CCCOc1ccc2c(Nc3cc(CC(=O)Nc4cccc(F)c4)[nH]n3)ncnc2c1 [AZD2811]; settings: max 1 µM
In short: as §1

AZD8186 = compound: C[C@@H](Nc1cc(F)cc(F)c1)c1cc(C(=O)N(C)C)cc2c(=O)cc(N3CCOCC3)oc12 [AZD8186]; settings: max 10 µM
In short: as §1

Prexasertib = compound: COc1cccc(OCCCN)c1-c1cc(Nc2cnc(C#N)cn2)n[nH]1 [Prexasertib]; settings: max 1 µM
In short: as §1

AZD6738 = compound: C[C@@H]1COCCN1C2=NC(=NC(=C2)C3(CC3)[S@](=N)(=O)C)C4=C5C=CNC5=NC=C4 [AZD6738]; settings: max 10 µM
In short: as §1

Taselisib = compound: Cc1nc(-c2cn3c(n2)-c2ccc(-c4cnn(C(C)(C)C(N)=O)c4)cc2OCC3)n(C(C)C)n1 [Taselisib]; settings: max 10 µM
In short: as §1

Crizotinib = compound: C[C@@H](Oc1cc(-c2cnn(C3CCNCC3)c2)cnc1N)c1c(Cl)ccc(F)c1Cl [Crizotinib]; settings: max 10 µM
In short: as §1

AZD0156 = compound: CN(C)CCCOc1ccc(-c2ccc3ncc4c(c3c2)n(C2CCOCC2)c(=O)n4C)cn1 [AZD0156]; settings: max 3 µM
In short: as §1

AZD1775 = compound: C=CCn1c(=O)c2cnc(Nc3ccc(N4CCN(C)CC4)cc3)nc2n1-c1cccc(C(C)(C)O)n1 [AZD1775]; settings: max 3 µM
In short: as §1

Selumetinib = compound: Cn1cnc2c(F)c(Nc3ccc(Br)cc3Cl)c(C(=O)NOCCO)cc21 [Selumetinib]; settings: max 10 µM
In short: as §1

Gefitinib = compound: COc1cc2ncnc(Nc3ccc(F)c(Cl)c3)c2cc1OCCCN1CCOCC1 [Gefitinib]; settings: max 10 µM
In short: as §1

[1] = compound: O=C(Nc1ccc2[nH]nc(-c3ccncc3)c2c1)[C@@H]1CCN(CC(=O)N2CCN(c3ccc(-c4ncccn4)cc3)CC2)C1; settings: max 5 µM
In short: as §1

Savolitinib = compound: C[C@@H](c1ccc2nccn2c1)n1nnc2ncc(-c3cnn(C)c3)nc21 [Savolitinib]; settings: max 1 µM
In short: as §1

SRA737 = compound: N#Cc1cnc(Nc2cc(NC[C@H]3CNCCO3)c(C(F)(F)F)cn2)cn1 [SRA737]; settings: max 10 µM
In short: as §1

Olaparib = compound: O=C(c1cc(Cc2n[nH]c(=O)c3ccccc23)ccc1F)N1CCN(C(=O)C2CC2)CC1 [Olaparib]; settings: max 10 µM
In short: as §1

SN-38 = compound: CCc1c2c(nc3ccc(O)cc13)-c1cc3c(c(=O)n1C2)COC(=O)[C@]3(O)CC [SN-38]; settings: max 0.3 µM
In short: as §1

Alisertib = compound: COc1cc(Nc2ncc3c(n2)-c2ccc(Cl)cc2C(c2c(F)cccc2OC)=NC3)ccc1C(=O)O [Alisertib]; settings: max 10 µM
In short: as §1

Gemcitabine = compound: Nc1ccn([C@@H]2O[C@H](CO)[C@@H](O)C2(F)F)c(=O)n1 [Gemcitabine]; settings: max 0.3 µM
In short: as §1

AZD5363 = compound: C1CN(CCC1(C(=O)N[C@@H](CCO)C2=CC=C(C=C2)Cl)N)C3=NC=NC4=C3C=CN4 [AZD5363]; settings: max 10 µM
In short: as §1

Palbociclib = compound: CC(=O)c1c(C)c2cnc(Nc3ccc(N4CCNCC4)cn3)nc2n(C2CCCC2)c1=O [Palbociclib]; settings: max 10 µM
In short: as §1

AZD4320 = compound: CN(CC[C@H](CSC1=CC=CC=C1)NC2=C(C=C(C=C2)S(=O)(=O)NC(=O)C3=CC=C(C=C3)N4CCC(CC4)[C@H](C5=CC=CC=C5C6=CC=C(C=C6)Cl)O)S(=O)(=O)C(F)(F)F)CCO [AZD4320]; settings: max 1 µM
In short: as §1

Lapatinib = compound: CS(=O)(=O)CCNCc1ccc(-c2ccc3ncnc(Nc4ccc(OCc5cccc(F)c5)c(Cl)c4)c3c2)o1 [Lapatinib]; settings: max 10 µM
In short: as §1

Carboplatin = compound: C1CC(C1)(C(=O)[O-])C(=O)[O-].N.N.[Pt+2] [Carboplatin]; settings: max 10 µM
In short: as §1

Trametinib = compound: CC(=O)Nc1cccc(-n2c(=O)n(C3CC3)c(=O)c3c(Nc4ccc(I)cc4F)n(C)c(=O)c(C)c32)c1 [Trametinib]; settings: max 1 µM
In short: as §1

Cell Line	IC50, cell viability 72 h (SG3199) [nM]	IC50, cell viability 72 h (MK-2206) [nM]	IC50, cell viability 72 h (AZD5991) [nM]	IC50, cell viability 72 h (AZD7648) [nM]	IC50, cell viability 72 h (Dasatinib) [nM]	IC50, cell viability 72 h (5-Fluorouracil) [nM]	IC50, cell viability 72 h (AZD1390) [nM]	IC50, cell viability 72 h (Etoposide) [nM]	IC50, cell viability 72 h (AZD5153) [nM]	IC50, cell viability 72 h (Venetoclax) [nM]	IC50, cell viability 72 h (Paclitaxel) [nM]	IC50, cell viability 72 h (Doxorubicin) [nM]	IC50, cell viability 72 h (AZD2811) [nM]	IC50, cell viability 72 h (AZD8186) [nM]	IC50, cell viability 72 h (Prexasertib) [nM]	IC50, cell viability 72 h (AZD6738) [nM]	IC50, cell viability 72 h (Taselisib) [nM]	IC50, cell viability 72 h (Crizotinib) [nM]	IC50, cell viability 72 h (AZD0156) [nM]	IC50, cell viability 72 h (AZD1775) [nM]	IC50, cell viability 72 h (Selumetinib) [nM]	IC50, cell viability 72 h (Gefitinib) [nM]	IC50, cell viability 72 h [1] [nM]	IC50, cell viability 72 h (Savolitinib) [nM]	IC50, cell viability 72 h (SRA737) [nM]	IC50, cell viability 72 h (Olaparib) [nM]	IC50, cell viability 72 h (SN-38) [nM]	IC50, cell viability 72 h (Alisertib) [nM]	IC50, cell viability 72 h (Gemcitabine) [nM]	IC50, cell viability 72 h (AZD5363) [nM]	IC50, cell viability 72 h (Palbociclib) [nM]	IC50, cell viability 72 h (AZD4320) [nM]	IC50, cell viability 72 h (Lapatinib) [nM]	IC50, cell viability 72 h (Carboplatin) [nM]	IC50, cell viability 72 h (Trametinib) [nM]
EW-11 (Ewing's Sarcoma)	> 1	6380	423	> 10000	> 2000	> 20000	> 300	4160	> 1000	> 1000	35.6	212	> 1000	> 10000	62.2	5930	1000	5630	> 3000	> 3000	> 10000	> 10000	> 5000	> 1000	> 10000	> 10000	8.46	> 10000	55.7	> 10000	> 10000	210	> 10000	> 10000	> 1000
GAMG (Glioblastoma)	> 1	> 10000	> 1000	> 10000	1710	> 20000	> 300	4440	> 1000	> 1000	7.35	237	> 1000	2980	82.9	> 10000	3590	> 10000	> 3000	1690	> 10000	> 10000	> 5000	> 1000	> 10000	> 10000	55.5	2460	88.1	8420	> 10000	> 1000	> 10000	> 10000	> 1000
HH (T-Cell Non-Hodgkin's Lymphoma)	> 1	> 10000	341	> 10000	> 2000	> 20000	> 300	> 10000	> 1000	> 1000	> 3000	> 1000	> 1000	> 10000	186	> 10000	> 10000	> 10000	> 3000	> 3000	> 10000	> 10000	> 5000	> 1000	> 10000	> 10000	> 300	> 10000	> 300	> 10000	> 10000	> 1000	> 10000	> 10000	> 1000
HuCCT1 (Biliary Tract Carcinoma)	> 1	> 10000	> 1000	> 10000	918	> 20000	> 300	> 10000	780	> 1000	294	710	> 1000	> 10000	35.4	4360	> 10000	> 10000	> 3000	583	6720	> 10000	1790	> 1000	6750	> 10000	184	> 10000	> 300	> 10000	> 10000	> 1000	> 10000	> 10000	314
KS-1 (Glioblastoma)	> 1	> 10000	> 1000	> 10000	> 2000	> 20000	> 300	> 10000	264	> 1000	375	> 1000	> 1000	> 10000	539	> 10000	3460	> 10000	> 3000	> 3000	> 10000	> 10000	> 5000	> 1000	> 10000	> 10000	> 300	3510	> 300	> 10000	> 10000	> 1000	> 10000	> 10000	927

Reference: the supplement of paper PMC11061612
